Test results from patent publication US8378117B2 (priority 2005, dated 2013).
Like-named read-outs stand apart in the source and are kept apart here.

Columns and labels:
CB1 receptor = biological target: T1, CB1 receptor (Homo sapiens, UniProt P21554); assay: Binding assay for CB1 agonists or inverse agonists (SK-N-MC membranes, [3H]-CP-55,940); conditions: for IC50: Cannabinoid CB1 Receptor Binding IC50, calculated by linear regression from percent inhibition at various test concentrations
T1 construct: expressed in transfected cells
Protocol: (§1) The human CB1 and CB2 receptors were stably expressed in SK-N-MC cells transfected with pcDNA3 CB-1 (human) or pcDNA3 CB-2 (human). The cells were grown in T-180 cell culture flasks under standard cell culture conditions at 37° C. in a 5% CO2 atmosphere. The cells were harvested by trysinization and homogenized in a homogenization buffer (10 mM Tris, 0.2 mM MgCl2, 5 mM KCl, with protease inhibitors aprotinin, leupeptin, pepstatin A and bacitracin) and centrifuged (2000 g). The supernatant was then centrifuged in 2M sucrose (31,300 g) to produce a semi-purified membrane pellet. The pellet was resuspended in homogenization and stored at −80° C.
(§2) On the day of the assay, the pellet was thawed on ice and diluted in assay buffer (50 mM Tris-HCl, 5 mM MgCl2, 2.5 mM EDTA, 0.5 mg/mL fatty acid free bovine serum aldumin, pH 7.5). The diluted membrane pellet was added with buffer, either a test compound or vehicle standard and the radioligand [H]^3+-CP-55,940 (0.2 mM) to the wells of a 96-well polypropylene plate. Non-specific binding was measured in wells containing WIN 55,212 (10 uM). The plate was covered and incubated for 90 minutes at 30° C. The contents were then aspirated onto a Packard Unifilter GF/C filter bottom plate prewet with 0.5% polyethyleneimine. The wells of the polypropylene plate were rinsed and aspirated seven times with a 0.9% saline-0.5% Tween 20 solution. The Unifilter plate was dried, a scintillation cocktail was added to each well and the counts representing binding were quantitated in a TopCount scintillation counter.
(§3) For compounds tested, an IC50 binding value was obtained from percent inhibition studies in which various test concentrations were used. The binding value was calculated by linear regression.

CB2 receptor = biological target: T2, CB2 receptor (Homo sapiens, UniProt P34972); assay: Binding assay for CB2 agonists or inverse agonists (SK-N-MC membranes, [3H]-CP-55,940); conditions: for inhibition at 1 µM: read-out: CB2 receptor binding percent inhibition
T2 construct: expressed in transfected cells
Protocol: as §1
as §2, with “The diluted membrane pellet was added with buffer, either a test compound or vehicle standard and the radioligand [H]^3+-CP-55,940 (0.2 mM) to the wells of a 96-well polypropylene plate. Non-specific binding was measured in wells containing WIN 55,212 (10 uM).” left out
as §3

[1] = read-out: CB1 receptor binding percent inhibition, test concentration 1 μM (footnote 1)
[2] = calculated by linear regression from percent inhibition at various test concentrations, read-out: Cannabinoid CB2 Receptor Binding IC50
[3] = test concentration 1 μM (footnote 1)

T1 sequence (P21554 whole entry): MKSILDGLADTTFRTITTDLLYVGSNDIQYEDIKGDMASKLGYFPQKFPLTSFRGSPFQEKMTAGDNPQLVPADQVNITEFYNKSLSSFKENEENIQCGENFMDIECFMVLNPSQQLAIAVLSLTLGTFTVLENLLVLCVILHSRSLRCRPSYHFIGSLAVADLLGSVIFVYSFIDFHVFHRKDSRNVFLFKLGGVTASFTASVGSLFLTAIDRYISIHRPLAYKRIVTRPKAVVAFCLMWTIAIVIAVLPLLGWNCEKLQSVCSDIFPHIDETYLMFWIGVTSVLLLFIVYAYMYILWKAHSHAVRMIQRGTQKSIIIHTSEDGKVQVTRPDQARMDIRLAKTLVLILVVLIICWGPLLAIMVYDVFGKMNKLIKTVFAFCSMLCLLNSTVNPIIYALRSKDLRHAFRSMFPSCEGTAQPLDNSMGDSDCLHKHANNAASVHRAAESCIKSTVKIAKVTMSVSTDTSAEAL
T2 sequence (P34972 whole entry): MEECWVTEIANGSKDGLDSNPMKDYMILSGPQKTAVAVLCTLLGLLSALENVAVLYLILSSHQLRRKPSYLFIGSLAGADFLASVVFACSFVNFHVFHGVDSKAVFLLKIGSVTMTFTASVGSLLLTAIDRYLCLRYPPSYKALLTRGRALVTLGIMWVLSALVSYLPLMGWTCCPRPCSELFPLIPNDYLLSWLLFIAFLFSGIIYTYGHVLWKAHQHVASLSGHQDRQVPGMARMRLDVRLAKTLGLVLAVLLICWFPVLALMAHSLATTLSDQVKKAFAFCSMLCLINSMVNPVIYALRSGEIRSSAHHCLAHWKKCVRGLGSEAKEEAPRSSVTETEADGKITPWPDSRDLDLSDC

SMILES | inhibition at 1 µM (CB1 receptor; [1]) | CB2 receptor binding percent inhibition (CB2 receptor; test concentration not stated) | other results
O=C(NC12CC3CC(CC(C3)C1)C2)c1nn(C2CCCCC2)c2c1CCCCC2Cc1ccc(Cl)cc1 (centres unmarked) [Cpd 20, 8-(4-chloro-benzyl)-1-cyclohexyl-1,4,5,6,7,8-hexahydro-cycloheptapyrazole-3-carboxylic acid adamantan-1-ylamide] | 4% | 28% | 
O=C(NC12CC3CC(CC(C3)C1)C2)c1nn(C2CCCCC2)c2c1CCCCC2Cc1ccccc1Cl (centres unmarked) [Cpd 21, 8-(2-chloro-benzyl)-1-cyclohexyl-1,4,5,6,7,8-hexahydro-cycloheptapyrazole-3-carboxylic acid adamantan-1-ylamide] | 32% | 26% | 
O=C(NC12CC3CC(CC(C3)C1)C2)c1nn(-c2ccc(Cl)cc2Cl)c2c1CCCCC2Cc1cccc(Cl)c1 (centres unmarked) [Cpd 22, 8-(3-chloro-benzyl)-1-(2,4-dichloro-phenyl)-1,4,5,6,7,8-hexahydro-cycloheptapyrazole-3-carboxylic acid adamantan-1-ylamide] | 58% | 25% | 
O=C(NC1CCC1)c1nn(C2CCCCC2)c2c1CCCCC2Cc1ccccc1Cl (centres unmarked) [Cpd 23, 8-(2-chloro-benzyl)-1-cyclohexyl-1,4,5,6,7,8-hexahydro-cycloheptapyrazole-3-carboxylic acid cyclobutylamide] | 0% | 24% | 
O=C(NC1CCC1)c1nn(-c2ccc(Cl)cc2Cl)c2c1CCCCC2Cc1cccc(Cl)c1 (centres unmarked) [Cpd 24, 8-(3-chloro-benzyl)-1-(2,4-dichloro-phenyl)-1,4,5,6,7,8-hexahydro-cycloheptapyrazole-3-carboxylic acid cyclobutylamide] | 28% | 0% | 
O=C(NN1CCCCC1)c1nn(-c2ccc(Cl)cc2Cl)c2c1CCCCC2Cc1ccc(Cl)cc1 (centres unmarked) [Cpd 27, 8-(4-chloro-benzyl)-1-(2,4-dichloro-phenyl)-1,4,5,6,7,8-hexahydro-cycloheptapyrazole-3-carboxylic acid piperidin-1-ylamide] | 0% | 0% | 
O=C(NC1CCC1)c1nn(Cc2ccc(Cl)cc2)c2c1CCCCC2Cc1cccc(Cl)c1 (centres unmarked) [Cpd 29, 1-(4-chloro-benzyl)-8-(3-chloro-benzyl)-1,4,5,6,7,8-hexahydro-cycloheptapyrazole-3-carboxylic acid cyclobutylamide] | 13% | 18% | 
O=C(NC1CCC1)c1nn(Cc2ccc(Cl)cc2)c2c1CCCCC2Cc1ccc(Cl)cc1 (centres unmarked) [Cpd 30, 1,8-bis-(4-chloro-benzyl)-1,4,5,6,7,8-hexahydro-cycloheptapyrazole-3-carboxylic acid cyclobutylamide] | 28% |  | IC50 (CB2 receptor; [2]): 600 nM; inhibition at 1 µM (CB2 receptor; [3]): 65%
O=C(NC1CC1)c1nn(C2CCCCC2)c2c1CCCCC2Cc1ccccc1Cl (centres unmarked) [Cpd 31, 8-(2-chloro-benzyl)-1-cyclohexyl-1,4,5,6,7,8-hexahydro-cycloheptapyrazole-3-carboxylic acid cyclopropylamide] | 0% | 35% | 
O=C(NC1CC1)c1nn(C2CCCCC2)c2c1CCCCC2Cc1cccc(Cl)c1 (centres unmarked) [Cpd 32, 8-(3-chloro-benzyl)-1-cyclohexyl-1,4,5,6,7,8-hexahydro-cycloheptapyrazole-3-carboxylic acid cyclopropylamide] | 0% | 0% | 
O=C(NC1CC1)c1nn(C2CCCCC2)c2c1CCCCC2Cc1ccc(Cl)cc1 (centres unmarked) [Cpd 33, 8-(4-chloro-benzyl)-1-cyclohexyl-1,4,5,6,7,8-hexahydro-cycloheptapyrazole-3-carboxylic acid cyclopropylamide] | 0% | 0% | 
O=C(NC1CC1)c1nn(Cc2ccc(Cl)cc2)c2c1CCCCC2Cc1ccc(Cl)cc1 (centres unmarked) [Cpd 34, 1,8-bis-(4-chloro-benzyl)-1,4,5,6,7,8-hexahydro-cycloheptapyrazole-3-carboxylic acid cyclopropylamide] | 0% | 0% | 
O=C(NC1CC1)c1nn(Cc2ccc(Cl)cc2)c2c1CCCCC2Cc1cccc(Cl)c1 (centres unmarked) [Cpd 35, 1-(4-chloro-benzyl)-8-(3-chloro-benzyl)-1,4,5,6,7,8-hexahydro-cycloheptapyrazole-3-carboxylic acid cyclopropylamide] | 22% | 36% | 
O=C(NC1CCC1)c1nn(C2CCCCC2)c2c1CCCCC2Cc1cccc(Cl)c1 (centres unmarked) [Cpd 36, 8-(3-chloro-benzyl)-1-cyclohexyl-1,4,5,6,7,8-hexahydro-cycloheptapyrazole-3-carboxylic acid cyclobutylamide] | 25% | 0% | 
O=C(NC1CCC1)c1nn(C2CCCCC2)c2c1CCCCC2Cc1ccc(Cl)cc1 (centres unmarked) [Cpd 37, 8-(4-chloro-benzyl)-1-cyclohexyl-1,4,5,6,7,8-hexahydro-cycloheptapyrazole-3-carboxylic acid cyclobutylamide] | 15% | 10% | 
O=C(NC1CC1)c1nn(-c2ccc(Cl)cc2Cl)c2c1CCCCC2Cc1ccc(Cl)cc1 (centres unmarked) [Cpd 38, 8-(4-chloro-benzyl)-1-(2,4-dichloro-phenyl)-1,4,5,6,7,8-hexahydro-cycloheptapyrazole-3-carboxylic acid cyclopropylamide] | 39% | 0% | 
Cn1nc(C(=O)NC2CCC2)c2c1C(Cc1ccccc1Cl)CCCC2 (centres unmarked) [Cpd 39, 8-(2-chloro-benzyl)-1-methyl-1,4,5,6,7,8-hexahydro-cycloheptapyrazole-3-carboxylic acid cyclobutylamide] | 0% | 30% | 
O=C(NC1CCC1)c1nn(C2CCCCC2)c2c1CCCCC2Cc1cccc(F)c1 (centres unmarked) [Cpd 43, 1-cyclohexyl-8-(3-fluoro-benzyl)-1,4,5,6,7,8-hexahydro-cycloheptapyrazole-3-carboxylic acid cyclobutylamide] | 14% | 42% | 
CC12CCC(C1)C(C)(C)[C@H]2NC(=O)c1nn(C2CCCCC2)c2c1CCCCC2Cc1cccc(F)c1 (stereo partly drawn) [Cpd 44, 1-cyclohexyl-8-(3-fluoro-benzyl)-1,4,5,6,7,8-hexahydro-cycloheptapyrazole-3-carboxylic acid [(2S)-1,3,3-trimethyl-bicyclo[2.2.1]hept-2-yl]-amide] |  |  | IC50 (CB1 receptor): 200 nM; inhibition at 1 µM (CB1 receptor; read-out: CB1 receptor binding percent inhibition): 82%; IC50 (CB2 receptor; [2]): 600 nM; inhibition at 1 µM (CB2 receptor; [3]): 75%
CC(C)(C)OC(=O)N1CCC(NC(=O)c2nn(C3CCCCC3)c3c2CCCCC3Cc2cccc(F)c2)CC1 (centres unmarked) [Cpd 46, 4-{[1-cyclohexyl-8-(3-fluoro-benzyl)-1,4,5,6,7,8-hexahydro-cycloheptapyrazole-3-carbonyl]-amino}-piperidine-1-carboxylic acid tert-butyl ester] | 45% | 0% | 
CC12CCC(C1)C(C)(C)[C@H]2NC(=O)c1nn(Cc2ccccc2)c2c1CCCCC2c1ccccc1 (stereo partly drawn) [Cpd 47, 1-benzyl-8-phenyl-1,4,5,6,7,8-hexahydro-cycloheptapyrazole-3-carboxylic acid [(2S)-1,3,3-trimethyl-bicyclo[2.2.1]hept-2-yl]-amide] | 91% |  | IC50 (CB1 receptor): 100 nM; IC50 (CB2 receptor; Cannabinoid CB2 Receptor Binding IC50, calculated by linear regression from percent inhibition at various test concentrations): 30 nM; CB2 receptor binding percent inhibition (CB2 receptor; [3]): 94%
